Here are results for 8 compounds from PMC9268571, “Parabens Permeation through Biological Membranes: A Comparative Study Using Franz Cell Diffusion System and Biomimetic Liquid Chromatography” (Molecules, 2022).

Like-named read-outs stand apart in the source and are kept apart here. Where only a bound is given, the exact number is not on record here.

On the set-up of data set [1]: method as in PubCHEM. The following applies: n-octanol–water; ref PubCHEM; cited from earlier work.
Data set [2] can be described thus: IAM chromatography (phospholipophilicity) on IAM.PC.DD2. In kind it is physicochemical. Particulars: 0.1 M phosphate buffer pH 5.0/acetonitrile, extrapolated to 100% aqueous phase. How it is done:
(§1) Phospholipophilicity was experimentally determined using two IAM analytical columns, i.e., IAM.PC.MG (150 × 4.6 mm, 10 μm p.s., pore size: 300 Å) and IAM.PC.DD2 (150 × 4.6 mm, 10 μm p.s., pore size: 300 Å), both from Regis Chemical Company (Morton Grove, IL, USA). The analyses on the IAM.PC.MG were conducted on a LC-20 AD VP (from Shimadzu Corp., Kyoto, Japan), equipped with an ultraviolet (UV)–visible detector (Shimadzu Model SPD10 AV) set at λ = 254 nm. For the determinations on the IAM.PC.DD2, an alliance HPLC system (Waters Corporation, Milford, MA USA) with 2690/2695 separation module, 2996 PDA detector, 717 plus autosampler, and 2487 dual λ absorbance detector, was used at 254 nm wavelength instead. The methods were set, and chromatograms were recorded by Waters Empower® 3 software (Milford, MA USA). On both columns, employed eluents were 0.1 M phosphate buffer at pH 5.0 and acetonitrile at various percentages with a flow rate of 1.0 mL min^−1. All samples were dissolved in acetonitrile (ca. 10^−4 M), and chromatographic analyses were carried out at 22 ± 2 °C. The two different IAM stationary phases differ from each other in the end-capping of residual amino groups of the silica-propylamine core, which support C10 and C3 alkyl chains being end-capped by both decanoic and propionic anhydrides (IAM.PC.DD2), while IAM.PC.MG supports hydroxy groups being end-capped by methyl glycolate. […] Since all the compounds under our investigation required at least the addition of acetonitrile to the mobile phase to elute within 20 min, at least three different mobile phases containing acetonitrile in percentages (φ), ranging from 10% to 30% (v/v), were employed. All kw IAM values average at least three individual measurements, and the final values are reported as decimal logarithms.

The nature of data set [3]: IAM chromatography (phospholipophilicity) on IAM.PC.MG. In kind it is physicochemical. The following applies: 0.1 M phosphate buffer pH 5.0/acetonitrile, extrapolated to 100% aqueous phase. How it is done:
as §1

The conditions of data set [4]: source not stated, no method described; cited from earlier work.
The next data set in a line: in vitro. The following applies: male, pig.

For orientation: Log P means the decadic logarithm of the partition coefficient of the neutral form, usually between octanol and water. With `CCCCOC(=O)c1ccc(O)cc1` [BuP, Butyl 4-hydroxybenzoate], the “Log P” value in data set [1] was 3.57. Besides, in data set [2], the “logkw IAM.DD2” value was 2.812. In addition, the “logkw IAM.MG” value in data set [3] is reported as 1.818.

Regarding `O=C(OCc1ccccc1)c1ccc(O)cc1` [BzP, Benzyl 4-hydroxybenzoate], in data set [1], the log partition coefficient (Log P) is recorded as 3.56. In data set [4], the “S (Solubility in water)” value is 92 µg/mL. In data set [2], the “logkw IAM.DD2” value was 2.735. Moreover, the “logkw IAM.MG” value in data set [3] is 2.292.

In general, Papp refers to the rate of passage across a membrane or cell layer, normalised by area and donor concentration. Low values mean slow passage, high ones fast passage. As for `CCOC(=O)c1ccc(O)cc1` [EP, Ethyl 4-hydroxybenzoate], in data set [1], the “Log P” value is on record as 2.47. Moreover, the “S (Solubility in water)” value in data set [4] is 885 µg/mL. For the same compound, the “logkw IAM.DD2” value in data set [2] is 1.751. The compound further showed a Papp at 24 h in “in vitro” of 0.261 ×10⁻⁶ cm/s. For the same compound, in data set [3], the “logkw IAM.MG” value was 0.956. The “Log Kp * (determined in the present study)” value (experimental, Franz cell, porcine ear skin) is on record as −6.58 cm/s. Besides, the “time to maximum passage through the porcine skin” value (from the beginning of the experiment) was not above 120 min. Under “porcine ear skin, saturated solution in PBS pH 5.0 as donor, receptor PBS pH 7.4, 37 °C, ± standard deviation”, the “Maximum Flux” value turned out to be 2.35 ± 0.71 µg/cm^2/h. Besides, under “porcine ear skin, median, 95% interval confidence in parentheses”, the “Permeation (%) (Median)” value is reported as 0.110 (0–0.11) %.

Turning to `COC(=O)c1ccc(O)cc1` [MP, Methyl 4-hydroxybenzoate], the “logkw IAM.DD2” value in data set [2] is recorded as 1.306. In addition, the “logkw IAM.MG” value in data set [3] is reported as 0.615.

Turning to `CCCOC(=O)c1ccc(O)cc1` [PrP, Propyl 4-hydroxybenzoate], the “logkw IAM.DD2” value in data set [2] is given as 2.267. Moreover, the “logkw IAM.MG” value in data set [3] is 1.339. Under “at any time (½–24 h), fully aqueous donor pH 5.0”, the “detection in receptor fluids” value is on record as “not detected”.

As to `CC(C)COC(=O)c1ccc(O)cc1` [iBuP, Isobutyl 4-hydroxybenzoate], the “Log P” value in data set [1] was 3.57. The “S (Solubility in water)” value in data set [4] was 207 µg/mL. Moreover, in data set [2], the “logkw IAM.DD2” value was 2.448. Also, the “logkw IAM.MG” value in data set [3] is given as 1.708.

Consider `CC(C)OC(=O)c1ccc(O)cc1` [iPrP, Isopropyl 4-hydroxybenzoate], for which the “S (Solubility in water)” value in data set [4] was 500 µg/mL. Moreover, the “logkw IAM.DD2” value in data set [2] is given as 1.914. The “logkw IAM.MG” value in data set [3] is listed as 1.227.

As to `O=C(O)c1ccc(O)cc1` [pHBA, 4-Hydroxybenzoic acid], the “logkw IAM.DD2” value in data set [2] is less than 1. For the same compound, in data set [2] (listed as pHB), the “logkw IAM.DD2” value is listed as −1.054. In “in vitro”, this compound had a Papp at 24 h of 3.33 ×10⁻⁶ cm/s. Further, the “logkw IAM.MG” value in data set [3] is listed as less than 1. Besides, in data set [3] (listed as pHB), the “logkw IAM.MG” value is −0.955. Besides, for the setting “male, pig”, the “Maximum Flux” value was 12.68 ± 4.08 µg/cm^2/h, the “Permeation (%) (Median)” value is listed as 0.997 (0–1.22) % and the “time to maximum passage through the porcine skin” value is given as not above 30 min. For the same compound, where the note is “pig”, the “Log Kp * (determined in the present study)” value is recorded as −5.48 cm/s.
